Results reported in article PMC9928118, “Funneling modulatory peptide design with generative models: Discovery and characterization of disruptors of calcineurin protein-protein interactions” (PLOS Computational Biology, 2023).

Each molecule was assayed against T1, Calcineurin (Cn) catalytic domain (Cn A), PxIxIT binding site (Homo sapiens, UniProt Q08209, L343A/M347D/Y341S) (assay: Fluorescence polarization (FP) competition assay against FITC-labeled PVIVIT peptide). Details: 100nM FITC-labeled PVIVIT peptide, 4uM Cn A, result in words.
T1 construct: the gene encoding to residues 2–347 with substitutions Y341S, L343A, and M347D was expressed as a cleavable GST fusion protein; GST; made in house; host or cells: E. coli BL21
T1 sequence (Q08209 2-347 Y341S/L343A/M347D): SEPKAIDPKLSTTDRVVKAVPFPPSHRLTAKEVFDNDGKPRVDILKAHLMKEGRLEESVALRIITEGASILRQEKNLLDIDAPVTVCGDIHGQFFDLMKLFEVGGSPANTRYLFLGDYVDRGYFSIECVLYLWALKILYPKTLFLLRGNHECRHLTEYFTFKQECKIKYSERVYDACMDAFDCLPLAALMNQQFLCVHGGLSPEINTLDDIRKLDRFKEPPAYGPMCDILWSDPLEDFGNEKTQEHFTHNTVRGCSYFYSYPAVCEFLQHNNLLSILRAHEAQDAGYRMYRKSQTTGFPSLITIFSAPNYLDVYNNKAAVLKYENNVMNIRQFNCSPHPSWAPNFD
Protocol: Polarization levels were read and normalized values were fitted to a single site model.
Selected peptides were synthesized and their ability to specifically bind the Cn PxIxIT binding site was evaluated by FP competition assay (Methods).
The catalytic domain of Cn was expressed as described in [84, 85]. […] Growing in LB, after reaching to OD(600nm) = 0.8, protein expression was induced by the addition of 1 mM IPTG at 25°C. The cells were harvested after 16h and resuspended in PBS-based lysis buffer suitable for downstream purification onto GST column (Glutathione Sepharose 4 Fast Flow) of the soluble fraction after disrupted by sonication and remove of all non-soluble debris by centrifuge. Elution from the GST column was further purified by size exclusion chromatography with the superdex75 column.
Fluorescence measurements were performed on samples arrayed in a 96-well plate using Biotek HybridH1 reader equipped with a polarized optic system. All measurements were done in triplicate.

Molecule | Ability to compete with PVIVIT for Cn binding
Ac-AAGAGVGIVITVTEAE-NH2 [rbmAKAP79] | successfully competed with PVIVIT binding
Ac-ADGAGVGIVITVTEAE-NH2 [rbmAKAP79_2] | successfully competed with PVIVIT binding

Same assay, conditions: read-out: IC50 (competition with FITC-labeled PVIVIT peptide for Cn binding), 100nM FITC-labeled PVIVIT peptide, 4uM Cn A, variable peptide concentrations, 96-well plate, triplicate, single site inhibition model fit, NB = No binding

IC50 [µM] | Molecule
> 257 | Ac-RTYINPFMLFEDMGSR-NH2 [rbmSFB3]
> 257 | Ac-TFHTNPQYRIKLEEPD-NH2 [rbmCAPN11_2]
> 257 | Ac-TFWTNPQYRIKLEEAD-NH2 [rbmCAPN11_3]
> 257 | Ac-TTAMNPQFFVQIPRTA-NH2 [CAPN11]

These molecules were tested against T2, catalytic domain of Calcineurin (Cn A), residues 2-347 with Y341S, L343A, M347D (UniProt Q08209 2-347, Y341S | L343A | M347D) (assay: fluorescence polarisation; competition: variable concentrations of non-labeled peptide added to 100 nM FITC-labeled PVIVIT peptide and 4 uM Cn A, 96-well plate, triplicate; fitted to a single site inhibition model). Details: both partners purified.
T2 construct: Calcineurin catalytic domain (calcineurin A), residues 2-347, with substitutions Y341S, L343A, M347D; Expressed as a cleavable GST fusion; source: E. coli BL21, purified (Glutathione Sepharose 4 Fast Flow, size exclusion on Superdex 75)
T2 sequence (Q08209 2-347 Y341S/L343A/M347D): as above

IC50 [µM] | Molecule
57 | Ac-AAGAGVGIVITVTEAE-NH2 (cRBM-designed (low temperature sampling); source: synthetic peptide (peptide2 Inc)) [rbmAKAP79]
69 | Ac-ADGAGVGIVITVTEAE-NH2 (cRBM-designed (low temperature sampling); source: synthetic peptide (peptide2 Inc)) [rbmAKAP79_2]
60 | Ac-ADEAIPEITITSAELP-NH2 (cRBM-designed (low temperature sampling); source: synthetic peptide (peptide2 Inc)) [rbmTRESK_2]
54 | Ac-ADEAVPQIIISAEELP-NH2 (source: synthetic peptide (peptide2 Inc)) [TRESK peptide]
